From ChEMBL document CHEMBL1201862, “PubChem BioAssay data set” (2004)
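Step 1: Grow cells in 96-well plates. Step 2: Expose to compound for 48 hours at 5 concentrations. Step 3: Interpolate endpoints linearly; if unreached, use highest concentration. GI50 is the concentration that inhibits growth by half.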 Activity calls are given as the source filed them. No stated cut-off is given here; in the data, active = GI50 up to about 1.1 µM and inactive = higher.

What was measured:
Experiment in all cases: NCI-60 cell line screen, 48 h
[1] = tested on: 786-0
[2] = tested on: A498
[3] = tested on: A549
[4] = tested on: ACHN
[5] = tested on: BT-549
[6] = tested on: CAKI-1
[7] = tested on: COLO 205
[8] = tested on: EKVX
[9] = tested on: HCT-116
[10] = tested on: HCT-15
[11] = tested on: HOP-62
[12] = tested on: HOP-92
[13] = tested on: HT-29
[14] = tested on: Hs-578T
[15] = tested on: IGROV-1
[16] = tested on: K562
[17] = tested on: KM12
[18] = tested on: LOX IMVI
[19] = tested on: M14
[20] = tested on: MCF7
[21] = tested on: MDA-MB-231
[22] = tested on: MDA-MB-435
[23] = tested on: MDA-N
[24] = tested on: Malme-3M
[25] = tested on: NCI-H226
[26] = tested on: NCI-H23
[27] = tested on: NCI-H460
[28] = tested on: NCI-H522
[29] = tested on: NCI/ADR-RES
[30] = tested on: OVCAR-3
[31] = tested on: OVCAR-4
[32] = tested on: OVCAR-5
[33] = tested on: OVCAR-8
[34] = tested on: PC-3
[35] = tested on: RPMI-8226
[36] = tested on: RXF 393
[37] = tested on: SF-268
[38] = tested on: SF-295
[39] = tested on: SF-539
[40] = tested on: SK-MEL-28
[41] = tested on: SK-MEL-2
[42] = tested on: SK-MEL-5
[43] = tested on: SK-OV-3
[44] = tested on: SN12C
[45] = tested on: SNB-19
[46] = tested on: SNB-75
[47] = tested on: SW-620
[48] = tested on: T47D
[49] = tested on: TK-10
[50] = tested on: U-251
[51] = tested on: UACC-257
[52] = tested on: UACC-62
[53] = tested on: UO-31
[54] = tested on: CCRF-CEM
[55] = tested on: DU-145
[56] = tested on: HCC 2998
[57] = tested on: HL-60
[58] = tested on: MOLT-4
[59] = tested on: SR

CC(C)(CO)N1CCN(C(S)=Nc2ccccc2)CC1
GI50 [1]: > 100 µM (inactive)
GI50 [2]: > 100 µM (inactive)
GI50 [3]: > 100 µM (inactive)
GI50 [4]: > 100 µM (inactive)
GI50 [5]: > 100 µM (inactive)
GI50 [6]: > 100 µM (inactive)
GI50 [7]: > 100 µM (inactive)
GI50 [8]: > 100 µM (inactive)
GI50 [9]: > 100 µM (inactive)
GI50 [10]: > 100 µM
GI50 [11]: > 100 µM (inactive)
GI50 [12]: > 100 µM (inactive)
GI50 [13]: > 100 µM (inactive)
GI50 [14]: > 100 µM (inactive)
GI50 [15]: > 100 µM (inactive)
GI50 [16]: 64.3 µM (inactive)
GI50 [17]: > 100 µM (inactive)
GI50 [18]: > 100 µM (inactive)
GI50 [19]: > 100 µM (inactive)
GI50 [20]: > 100 µM (inactive)
GI50 [21]: > 100 µM (inactive)
GI50 [22]: > 100 µM (inactive)
GI50 [23]: > 100 µM (inactive)
GI50 [24]: > 100 µM (inactive)
GI50 [25]: > 100 µM (inactive)
GI50 [26]: > 100 µM (inactive)
GI50 [27]: > 100 µM (inactive)
GI50 [28]: > 100 µM (inactive)
GI50 [29]: > 100 µM (inactive)
GI50 [30]: > 100 µM (inactive)
GI50 [31]: > 100 µM (inactive)
GI50 [32]: > 100 µM (inactive)
GI50 [33]: > 100 µM (inactive)
GI50 [34]: > 100 µM (inactive)
GI50 [35]: > 100 µM (inactive)
GI50 [36]: > 100 µM (inactive)
GI50 [37]: > 100 µM (inactive)
GI50 [38]: > 100 µM (inactive)
GI50 [39]: > 100 µM (inactive)
GI50 [40]: > 100 µM (inactive)
GI50 [41]: > 100 µM (inactive)
GI50 [42]: > 100 µM (inactive)
GI50 [43]: > 100 µM (inactive)
GI50 [44]: > 100 µM (inactive)
GI50 [45]: > 100 µM (inactive)
GI50 [46]: > 100 µM (inactive)
GI50 [47]: > 100 µM (inactive)
GI50 [48]: > 100 µM (inactive)
GI50 [49]: > 100 µM (inactive)
GI50 [50]: > 100 µM (inactive)
GI50 [51]: > 100 µM (inactive)
GI50 [52]: > 100 µM (inactive)
GI50 [53]: > 100 µM (inactive)

O=C1CC(Cl)c2c1csc2Br (stereo unspecified)
GI50 [1]: 7.91 µM (inactive)
GI50 [2]: 24.1 µM (inactive)
GI50 [3]: 19 µM (inactive)
GI50 [4]: 15.6 µM (inactive)
GI50 [5]: 19.9 µM (inactive)
GI50 [6]: 5.61 µM (inactive)
GI50 [54]: 2.65 µM (inactive)
GI50 [7]: 15.2 µM (inactive)
GI50 [55]: 29.4 µM (inactive)
GI50 [8]: 20.3 µM (inactive)
GI50 [56]: 17.4 µM (inactive)
GI50 [9]: 15.9 µM (inactive)
GI50 [10]: 12.9 µM
GI50 [57]: 21.4 µM (inactive)
GI50 [11]: 14.5 µM (inactive)
GI50 [12]: 21.5 µM (inactive)
GI50 [13]: 21.7 µM (inactive)
GI50 [14]: 21.6 µM (inactive)
GI50 [15]: 16.5 µM (inactive)
GI50 [16]: 17.6 µM (inactive)
GI50 [17]: 13.2 µM (inactive)
GI50 [18]: 14.1 µM (inactive)
GI50 [19]: 13.9 µM (inactive)
GI50 [20]: 6.25 µM (inactive)
GI50 [22]: 15.1 µM (inactive)
GI50 [23]: 19.3 µM (inactive)
GI50 [58]: 3.66 µM (inactive)
GI50 [24]: 15.7 µM (inactive)
GI50 [25]: 29.9 µM (inactive)
GI50 [26]: 15.3 µM (inactive)
GI50 [27]: 20.4 µM (inactive)
GI50 [28]: 3.26 µM (inactive)
GI50 [29]: 20.9 µM (inactive)
GI50 [30]: 16.3 µM (inactive)
GI50 [31]: 25.9 µM (inactive)
GI50 [32]: 18.2 µM (inactive)
GI50 [33]: 16.3 µM (inactive)
GI50 [34]: 12.8 µM (inactive)
GI50 [35]: 1.03 µM (active)
GI50 [36]: 19 µM (inactive)
GI50 [37]: 16.8 µM (inactive)
GI50 [38]: 23.7 µM (inactive)
GI50 [39]: 3 µM (inactive)
GI50 [40]: 17.8 µM (inactive)
GI50 [41]: 15.1 µM (inactive)
GI50 [42]: 16.9 µM (inactive)
GI50 [43]: 18.6 µM (inactive)
GI50 [44]: 17.6 µM (inactive)
GI50 [45]: 17.5 µM (inactive)
GI50 [46]: 19.8 µM (inactive)
GI50 [59]: 4.56 µM (inactive)
GI50 [47]: 3.48 µM (inactive)
GI50 [48]: 23.1 µM (inactive)
GI50 [49]: 16 µM (inactive)
GI50 [50]: 16.7 µM (inactive)
GI50 [51]: 16.3 µM (inactive)
GI50 [52]: 15.3 µM (inactive)
GI50 [53]: 8.93 µM (inactive)
